Twelve compounds from ChEMBL document CHEMBL1130619, “Quaternary substituted PDE4 inhibitors I: the synthesis and in vitro evaluation of a novel series of oxindoles” (Bioorg Med Chem Lett, 1998) can be followed below.

The target of assay [1] is T1, Phosphodiesterase 4 (Homo sapiens, UniProt P27815+Q08499+Q07343+Q08493). As to the kind of experiment: Displacement of [3H]rolipram binding to guinea pig brain membrane. The format is tissue-based, Cavia porcellus. As to conditions: target entry is the homologue from another species. (Displacement assays read how much labelled ligand stays bound in the presence of the test substance.)

The target of assay [2] is T1, Phosphodiesterase 4. In words: Inhibition of guinea pig macrophage Phosphodiesterase 4. The format is protein assay, Cavia porcellus. As to conditions: target entry is the homologue from another species.

Compound `COc1ccc(C2(Cc3ccncc3)C(=O)N(C(=O)OC(C)(C)C)c3ccccc32)cc1OC1CCCC1` (centres undefined) came in with a Ki on Phosphodiesterase 4 [1] of 2800 nM. The compound further had an IC50 against Phosphodiesterase 4 [2] of 700 nM.
Consider `COc1ccc(C2(Cc3cccnc3)C(=O)Nc3ccccc32)cc1OC1CCCC1` (centres undefined), for which the Ki on Phosphodiesterase 4 [1] was 2600 nM. The same compound displayed an IC50 on Phosphodiesterase 4 [2] of 400 nM.
The matching figures for `COc1ccc(C2(Cc3ccncc3)C(=O)N(S(=O)(=O)c3ccc(C)cc3)c3ccccc32)cc1OC1CCCC1` (centres undefined): more than 3700 nM and 2400 nM.
On Phosphodiesterase 4 [1], `COc1ccc(C2(Cc3ccncc3)C(=O)Nc3ccccc32)cc1OC1CCCC1` (centres undefined) gave a Ki of 200 nM. For the same compound, the IC50 at Phosphodiesterase 4 [2] is 600 nM.
Regarding `COc1ccc(C2(Cc3ccncc3)C(=O)N(Cc3ccccc3)c3ccccc32)cc1OC1CCCC1` (centres undefined), the Ki at Phosphodiesterase 4 [1] is more than 3700 nM. Moreover, the IC50 on Phosphodiesterase 4 [2] was 2000 nM.
`COc1ccc(C2(Cc3ccncc3)C(=O)N(Cc3ccncc3)c3ccccc32)cc1OC1CCCC1` (centres undefined) showed a Ki at Phosphodiesterase 4 [1] of more than 3700 nM. Also, on Phosphodiesterase 4 [2], the IC50 came to 1000 nM.
As for `COc1ccc(C2(Cc3ccccn3)C(=O)Nc3ccccc32)cc1OC1CCCC1` (centres undefined), the Ki at Phosphodiesterase 4 [1] was more than 3700 nM. In addition, the IC50 against Phosphodiesterase 4 [2] was 700 nM.
As for `COc1ccc([C@H](Cc2ccncc2)c2ccccc2)cc1OC1CCCC1` [CDP840], at Phosphodiesterase 4 [1], the Ki is listed as 60 nM. Also, the IC50 at Phosphodiesterase 4 [2] worked out at 4.5 nM.
For the compound `COc1ccc(C2(Cc3ccncc3)C(=O)N(C(=O)N(C)C)c3ccccc32)cc1OC1CCCC1` (centres undefined), the Ki at Phosphodiesterase 4 [1] came out at 2400 nM. The same compound showed an IC50 on Phosphodiesterase 4 [2] of 1700 nM.
`COc1ccc(C2(Cc3cc[n+]([O-])cc3)C(=O)Nc3ccccc32)cc1OC1CCCC1` (centres undefined) yielded an inhibition constant (Ki) at Phosphodiesterase 4 [1] of more than 3700 nM. This compound also yielded an IC50 against Phosphodiesterase 4 [2] of 1200 nM.
For `COc1ccc(C2(Cc3ccccc3)C(=O)Nc3ccccc32)cc1OC1CCCC1` (centres undefined) the same measures were more than 3700 nM and 1000 nM.
As for `COc1ccc(C2C(=O)Nc3ccccc32)cc1OC1CCCC1` (centres undefined), the Ki on Phosphodiesterase 4 [1] was more than 3700 nM. For the same compound, the IC50 at Phosphodiesterase 4 [2] worked out at 6000 nM.

Usually Ki stands for the equilibrium dissociation constant of an inhibitor or competing ligand from its target. As usually defined, the IC50 is the concentration at which inhibition is half-maximal. A low value points to greater potency.
